# No end group written: not given here.
# Legend:
# Test in all cases: Cell viability assay (MTT)
# [1] = test system: Beas-2B cells
# Experimental: Beas-2B cells were grown in serum-free medium in the presence of ECP^32–41 at indicated concentrations for 24 h. (A) The cytotoxic effect of ECP^32–41 was measured by MTT assay. The cell viability of untreated cells was set to 100%. Cells treated with 0.1% Triton X-100 was used as a positive control. (B) The membrane disruption by ECP^32–41 was measured by LDH assay. LDH released from cells lysed with 0.1% Triton X-100 in medium was defined as 100% leakage and LDH released from untreated cells was set as 0% leakage.
# Beas-2B cells were incubated with 10 µM eGFP or eGFP-ECP^32–41 at 37°C for 1 h. The cells were then washed with 500 µl PBS, trypsinized at 37°C for 15 min, suspended in 500 µl PBS, and subjected to flow cytometry. (B) Beas-2B cells were treated with the indicated concentrations of TAT^47–57, ECP^32–41, KLA, KLA-TAT^47–57 or KLA-ECP^32–41 at 37°C for 24 h, and their cytotoxic effects were determined by the MTT assay. Cytotoxic effects of (C) KLA-TAT^47–57 and (D) KLA-ECP^32–41, at the indicated concentrations, on Beas-2B, A549, Caco-2, and AGS cells were assessed by the MTT assay after incubation at 37°C for 24 h. The cell viability untreated cells was set to 100%. The result is expressed as the mean ± S.D., n = 3.
# The effects of the peptides on cell viability were determined colourimetrically using 3-(4,5-dimethylthiazol-2-yl)-2,5-diphenyltetrazolium bromide (MTT) (US Biological). Cells (1.0×10^4/well) were seeded into the wells of 96-well plates and incubated overnight. Cell samples were then exposed to different concentrations of TAT^47–57, ECP^32–41, KLA, KLA-TAT^47–57 or KLA-ECP^32–41. After 24 h, 100 µl of 0.5 mg/ml MTT in medium was added into each well, and the cells were incubated at 37°C for 3 h. The incubation medium was removed, and the remaining purple crystal formazan was dissolved in dimethylsulphoxide. Cells treated with 0.1% Triton X-100 was used as a positive control for cell viability. A540 values were measured using a multiwall plate reader (Molecular Devices).
# [2] = test system: Caco-2 cells; type: cell-based, human; conditions: 24 h
# Excerpt: (§1) The cell viability untreated cells was set to 100%.
# [3] = test system: AGS cells; type: cell-based, human; conditions: 24 h
# Excerpt: as §1
compound,measurement,setting,value
N=C(N)NCCC[C@H](NC(=O)CN)C(=O)N[C@@H](CCCCN)C(=O)N[C@@H](CCCCN)C(=O)N[C@@H](CCCNC(=N)N)C(=O)N[C@@H](CCCNC(=N)N)C(=O)N[C@@H](CCC(N)=O)C(=O)N[C@@H](CCCNC(=N)N)C(=O)N[C@@H](CCCNC(=N)N)C(=O)N[C@@H](CCCNC(=N)N)C(=O)N1CCC[C@H]1C(=O)O [TAT^47–57],cell viability (MTT) at 100 µM,"[1]; Beas-2B, 100 µM peptide, 37°C, 24 h, n = 3",neither peptide affected cell viability
KLAKLAKKLAKLAK,cytotoxicity (MTT),[1],not cytotoxic
KLAKLAKKLAKLAKNYRWRCKNQN [KLA-ECP^32–41],EC50 fold higher than that of KLA-TAT47–57,[2],1.6 fold
same,EC50 fold higher than that of KLA-TAT47–57,[3],2.42 fold

# — paper PMC3587609, “A Novel Cell-Penetrating Peptide Derived from Human Eosinophil Cationic Protein” (PLoS ONE, 2013)
